Results from US10920265B2, “Compounds and methods for detection of enzymes that remove methyl succinyl groups from epsilon-amino lysine moieties” (Enzo Life Sciences, Inc., priority 2011, dated 2021).
*: point of attachment. AMC = Cc1cc(=O)oc2cc(N*)ccc12

What was measured:
SIRT1 = molecular target: T1, SIRT1 (Homo sapiens, UniProt Q96EB6); assay: Sirtuin activity with fluorogenic lysyl substrates; format: biochemical; settings: 50 μM substrate, 500 μM NAD^+
T1 construct: purchased ENZO Life Sciences BML-SE239
T1 sequence (Q96EB6 1-747): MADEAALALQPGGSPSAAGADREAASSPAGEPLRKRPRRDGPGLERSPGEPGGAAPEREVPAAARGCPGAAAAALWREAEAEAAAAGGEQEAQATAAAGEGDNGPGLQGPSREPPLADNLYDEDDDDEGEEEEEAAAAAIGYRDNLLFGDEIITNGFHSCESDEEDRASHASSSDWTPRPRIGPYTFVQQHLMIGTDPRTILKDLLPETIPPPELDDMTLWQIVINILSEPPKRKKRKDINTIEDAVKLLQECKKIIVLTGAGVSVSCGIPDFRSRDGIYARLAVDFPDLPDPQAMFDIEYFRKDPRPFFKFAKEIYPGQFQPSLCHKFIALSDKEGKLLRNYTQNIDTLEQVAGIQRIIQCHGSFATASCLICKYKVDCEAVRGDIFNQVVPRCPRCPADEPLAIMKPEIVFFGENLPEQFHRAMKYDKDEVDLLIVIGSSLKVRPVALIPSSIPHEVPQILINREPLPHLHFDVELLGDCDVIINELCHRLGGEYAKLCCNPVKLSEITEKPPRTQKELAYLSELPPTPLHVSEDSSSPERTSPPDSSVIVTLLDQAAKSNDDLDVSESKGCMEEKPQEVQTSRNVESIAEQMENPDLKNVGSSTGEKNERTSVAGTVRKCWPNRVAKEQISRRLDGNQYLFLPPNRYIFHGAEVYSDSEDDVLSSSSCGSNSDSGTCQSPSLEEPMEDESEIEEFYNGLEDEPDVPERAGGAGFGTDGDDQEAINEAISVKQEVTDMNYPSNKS
Description: The Ac-Lys(Succ.)-AMC substrate was tested for activity with recombinant preparations of human HDACs 1-11, SIRTs 1-4, 6 and 7, a complex of HDAC3 with a fragment of the activating protein NCOR1 and with HeLa nuclear extract, a rich source of active HDACs in their native multiprotein complexes.
Enzyme and extract catalog products obtained from ENZO Life Sciences included: HDAC1 (Cat. # BML-SE456), HDAC2 (Cat. # BML-SE500), HDAC3 (Cat. # BML-SE507), HDAC3/NCOR1 Complex (Cat. # BML-SE515), HDAC6 (Cat. # BML-SE508), HDAC8 (Cat. # BML-SE145), HDAC10 (Cat. # BML-SE559), HDAC11 (Cat. # BML-SE560), SIRT1 (Cat. # BML-SE239), SIRT2 (Cat. # BML-SE251), SIRT3 (Cat. # BML-SE270), SIRT5 (Cat. # BML-SE555), HeLa Nuclear Extract (Cat. # BML-KI140), Trypsin (“Fluor de Lys Developer”, 80 mg/ml bovine trypsin in 1 mM HCl, Cat. # BML-KI105 or “Fluor de Lys Developer II”, 80 mg/ml bovine trypsin in 1 mM HCl, Cat. # BML-KI176). […] Enzymes obtained from BPS Bioscience, San Diego, Calif. included: human recombinants SIRT4 (Cat. #50015), SIRT6 (Cat. #50017), SIRT7 (Cat. #50018). HeLa whole cell extract was obtained from HeLa S3 cells (American Type Culture Collection) grown in a medium of MEM/10% fetal bovine serum (FBS) as follows: 1) 9×10^6 cells were suspended by trypsinization, followed by a phosphate buffered saline (PBS) rinse and addition of MEM/10% FBS (1.5 mL) to eliminate trypsin before transfer to a 15 mL conical tube; 2) cells were sedimented by a low speed centrifugation, gently resuspended in PBS and sedimented again and supernatant removed; 3) lysis was induced by resuspension in 0.8 mL 50 mM Tris/HCl, pH 8.0 with the non-denaturing detergent NP-40 (0.5%), placement on ice and brief vortexing every 5 min. for 30 min.; 4) 100 μl of a concentrated salt solution in the same buffer was added in order to bring the final buffer composition to 50 mM Tris/C1, pH 8.0, 137 mM NaCl, 2.7 mM KCl, 1 mM MgCl2, 0.5% NP-40; 5) particulate matter was cleared by centrifugation and the cleared lysate supernatant transferred to a 1.5 mL Eppendorf tube and stored on ice until use in activity assays.
Assays were performed at 37° C., according to the manufacturer's instructions for the “SIRT1 Fluorometric Drug Discovery Kit” from Enzo Life Sciences (ELS) (Cat. # BML-AK555), with exceptions described as follows. Where indicated in figures and text, SIRT1 enzyme was replaced with another enzyme or extract and the “Fluor de Lys-SIRT1 Substrate” (Ac-Arg-His-Lys-Lys(Ac)-AMC; ELS Cat. # BML-KI-177) was replaced with another acetylated, succinylated or trifluoroacetylated substrate.

HeLa cells = assay: Intact HeLa cell desuccinylation/deacetylation assay; format: cell-based, human; settings: 200 μM substrate in medium, four hours
Description: HeLa cells were cultured to 95% confluence in the wells of ½-volume 96-well plates. […] After the indicated time, cells were lysed with detergent and trypsin added to release AMC from desuccinylated or deacetylated substrate and then fluorescence read (Ex.360 nm/Em. 460 nm). For “0 hr.” samples, substrate, inhibitors, lysis buffer and trypsin were added simultaneously. Bars represent the mean of three determinations and the error bars the Standard Deviation from that mean. Statistically significant differences between the fluorescences of “4 hr.” and “0 hr.” samples (Student's t-test) are indicated by asterisks as follows: *,p<0.02; **, p<0.002.
An assay employing Ac-Lys(Ac.)-AMC to measure the HDAC and sirtuin deacetylase activity of intact cultured cells has been described (Howitz, K. T. et al. Nature 425, 191-196 (2003); Product Manual of Enzo Life Sciences Cat. # BML-AK-503, “HDAC Fluorimetric Cellular Activity Assay Kit”, Appendix F). Ac-Lys(Ac)-AMC is added to the culture medium, enters the cells and is deacetylated by HDACs and sirtuins in their native intracellular context. Measurement of the amount of Ac-Lys-AMC produced by intracellular deacetylation is then accomplished by detergent lysis of the cells and release of the AMC fluorophore by trypsin. We therefore investigated whether Ac-Lys(Succ.)-AMC could be used to measure intracellular desuccinylation activity, in a similar fashion, with cultured HeLa cells. […] These latter, deacetylation results are consistent with previous observations made with this assay system (see Howitz, K. T. et al. Nature 425, 191-196 (2003) and Appendix F).
Assays (FIG. 10) were performed according to the manufacturer's instructions for the ““HDAC Fluorometric Cellular Activity Assay Kit” (ELS Cat. # BML-AK503), with exceptions described as follows. Where indicated the “Fluor de Lys Substrate” (Ac-Lys(Ac.)-AMC; ELS Cat. # BML-KI104) was replaced with Ac-Lys(Succ.)-AMC (1).

Compound: CC(=O)NCCCCC(NC(C)=O)C(=O)Nc1ccc2c(C)cc(=O)oc2c1 (stereo not shown) [Ac-Lys(Ac.)-AMC, Ac-Lys(ε-acetyl)-AMC, reference compound]
- Activity (SIRT1): 0.391 pmol/min/µg
- Intracellular desuccinylation/deacetylation of substrate (HeLa cells): significant deacetylation

Compound: COC(=O)CCC(=O)NCCCC[C@H](NC(C)=O)C(=O)Nc1ccc2c(C)cc(=O)oc2c1 [Compound 5, N—(N^α-acetyl-L-Lysine(N^ε-methyl succinyl))-AMC]
- Activity (SIRT1): 0.002 pmol/min/µg

Compound: Ac-Arg-His-Lys-Lys(ε-acetyl)-AMC (Ac-RHKK(Ac)-{AMC}; SMILES CC(=O)NCCCC[C@H](NC(=O)[C@H](CCCCN)NC(=O)[C@H](Cc1c[nH]cn1)NC(=O)[C@H](CCCNC(=N)N)NC(C)=O)C(=O)Nc1ccc2c(C)cc(=O)oc2c1) [Ac-RHKK(Ac)-AMC, p53 peptide fluorogenic deacetylase substrate, Cat. # BML-KI177, reference compound]
- Activity (pmol/min/μg) (SIRT1): Ac-RHKK(Ac)-AMC/64 pmol/min/μg

Compound: CCCCCCCCCCCCCC(=O)NCCCC[C@H](NC(C)=O)C(=O)Nc1ccc2c(C)cc(=O)oc2c1 [Compound 4, N—(N^α-acetyl-L-Lysine(N^ε-myristoyl))-AMC]
- Activity (SIRT1): 0.043 pmol/min/µg

Compound: CC(=O)N[C@@H](CCCCNC(=O)CCC(=O)O)C(=O)Nc1ccc2c(C)cc(=O)oc2c1 [Compound 1, N—(N^α-acetyl-L-Lysine(N^ε-succinyl))-AMC]
- Activity (pmol/min/μg) (SIRT1): Undetectable
- Intracellular desuccinylation/deacetylation of substrate (HeLa cells): no significant desuccinylation
